Experimental data taken from patent publication US9365614B2, “IAP BIR domain binding compounds” (priority 2006, dated 2016).

What was measured:
MDA-MB231 cells = assay: Survival MTT assay, MDA-MB-231; assay type: cell-based; conditions: Homo sapiens, 72 h
Description: (§1) One day prior the treatment with compound, 2000 to 4000 cells per well were plated in a tissue culture treated 96 well format dish with 100 ul of media and incubated at 37° C., 5% CO2. On the day of compound treatment, compounds were diluted with cell culture media to a working stock concentration of 2×. 100 uL of diluted compound were then added to each well. The treated plate was incubated for 72 h at 37° C., 5% CO2. Upon incubation, the cell viability was assessed as followed 20 uL of MTT reagent at 5 mg/ml were added per well to cell plate. The plate was incubated for 2 h at 37° C. in presence of 5% CO2. The supernatant was then removed from the plate and 100 uL of isopropanol were added. The absorbance was measured in a TECAN spectrophotometer at 570 nm. The percentage of viability was expressed in percentage of the signal obtained with non treated cells.

SKOV-3 cells = assay: Survival MTT assay, SKOV-3; assay type: cell-based; conditions: Homo sapiens, SK-OV-3, 72 h, read-out: SKOV-3 EC50
Description: as §1

CN[C@@H](C)C(=O)N[C@H](C(=O)N1C[C@@H](OCC#CC#CCO[C@H]2C[C@@H](C(=O)N[C@@H]3CCCc4ccccc43)N(C(=O)[C@@H](NC(=O)[C@H](C)NC)C(C)(C)C)C2)C[C@H]1C(=O)N[C@@H]1CCCc2ccccc21)C(C)(C)C [Compound 1]
EC50 (MDA-MB231 cells): < 0.05 µM | EC50 (SKOV-3 cells): < 0.05 µM

CN[C@@H](C)C(=O)N[C@H](C(=O)C1C[C@@H](NC(=O)CCCCCCCCC(=O)N[C@H]2C[C@@H](C(=O)N[C@@H]3CCCc4ccccc43)N(C(=O)[C@@H](NC(=O)[C@H](C)NC)C(C)(C)C)C2)C[C@H]1C(=O)N[C@@H]1CCCc2ccccc21)C(C)(C)C (stereo partly shown) [Compound 2]
EC50 (MDA-MB231 cells): < 0.05 µM | EC50 (SKOV-3 cells): < 0.05 µM

CC(C)(C)[C@H](NC(=O)[C@@H](N)CO)C(=O)N1C[C@@H](OCC#CC#CCO[C@H]2C[C@@H](C(=O)N[C@@H]3CCCc4ccccc43)N(C(=O)[C@@H](NC(=O)[C@@H](N)CO)C(C)(C)C)C2)C[C@H]1C(=O)N[C@@H]1CCCc2ccccc21 [Compound 5]
EC50 (MDA-MB231 cells): > 1 µM

CN[C@@H](C)C(=O)N[C@H](C(=O)N1C[C@@H](NC(=O)c2cncc(C(=O)N[C@H]3C[C@@H](C(=O)N[C@@H]4CCCc5ccccc54)N(C(=O)[C@@H](NC(=O)[C@H](C)NC)C(C)(C)C)C3)c2)C[C@H]1C(=O)N[C@@H]1CCCc2ccccc21)C(C)(C)C [Compound 41]
EC50 (SKOV-3 cells): < 0.05 µM

CN[C@@H](C)C(=O)N[C@H](C(=O)N1C[C@@H](NC(=O)c2cccc(C(=O)N[C@H]3C[C@@H](C(=O)N[C@@H]4CCCc5ccccc54)N(C(=O)[C@@H](NC(=O)[C@H](C)NC)C(C)(C)C)C3)n2)C[C@H]1C(=O)N[C@@H]1CCCc2ccccc21)C(C)(C)C [Compound 43]
EC50 (SKOV-3 cells): < 0.25 µM

CN[C@@H](C)C(=O)N[C@H](C(=O)N1C[C@@H](NC(=O)Nc2ccc(NC(=O)N[C@H]3C[C@@H](C(=O)N[C@@H]4CCCc5ccccc54)N(C(=O)[C@@H](NC(=O)[C@H](C)NC)C(C)(C)C)C3)cc2)C[C@H]1C(=O)N[C@@H]1CCCc2ccccc21)C(C)(C)C [Compound 44]
EC50 (SKOV-3 cells): < 0.05 µM

CN[C@@H](C)C(=O)N[C@H](C(=O)N1C[C@@H](NC(=O)c2ccc(C(=O)N[C@H]3C[C@@H](C(=O)NCc4ccccc4)N(C(=O)[C@@H](NC(=O)[C@H](C)NC)C(C)(C)C)C3)cc2)C[C@H]1C(=O)NCc1ccccc1)C(C)(C)C [Compound 46]
EC50 (SKOV-3 cells): < 0.25 µM

CN[C@@H](C)C(=O)N[C@H](C(=O)N1C[C@@H](NC(=O)c2ccc(C(=O)N[C@H]3C[C@@H](C(=O)NC4c5ccccc5-c5ccccc54)N(C(=O)[C@@H](NC(=O)[C@H](C)NC)C(C)(C)C)C3)cc2)C[C@H]1C(=O)NC1c2ccccc2-c2ccccc21)C(C)(C)C [Compound 47]
EC50 (SKOV-3 cells): < 0.05 µM

CN[C@@H](C)C(=O)N[C@H](C(=O)N1C[C@@H](NC(=O)c2ccc(C(=O)N[C@H]3C[C@@H](C(=O)NCc4cccc(-c5ccccc5)c4)N(C(=O)[C@@H](NC(=O)[C@H](C)NC)C(C)(C)C)C3)cc2)C[C@H]1C(=O)NCc1cccc(-c2ccccc2)c1)C(C)(C)C [Compound 48]
EC50 (SKOV-3 cells): < 0.25 µM

CN[C@@H](C)C(=O)N[C@H](C(=O)N1C[C@@H](NC(=O)c2ccc(C(=O)N[C@H]3C[C@@H](C(=O)N[C@H](C)c4ccccc4)N(C(=O)[C@@H](NC(=O)[C@H](C)NC)C(C)(C)C)C3)cc2)C[C@H]1C(=O)N[C@H](C)c1ccccc1)C(C)(C)C [Compound 49]
EC50 (SKOV-3 cells): < 0.05 µM

CN[C@@H](C)C(=O)N[C@H](C(=O)N1C[C@@H](NC(=O)c2ccc(C(=O)N[C@H]3C[C@@H](C(=O)N[C@@H](C)c4ccccc4)N(C(=O)[C@@H](NC(=O)[C@H](C)NC)C(C)(C)C)C3)cc2)C[C@H]1C(=O)N[C@@H](C)c1ccccc1)C(C)(C)C [Compound 50]
EC50 (SKOV-3 cells): < 0.25 µM

CN[C@@H](C)C(=O)N[C@H](C(=O)N1C[C@@H](NC(=O)c2ccc(C(=O)N[C@H]3C[C@@H](C(=O)NC(c4ccc(OC)cc4)c4ccc(OC)cc4)N(C(=O)[C@@H](NC(=O)[C@H](C)NC)C(C)(C)C)C3)cc2)C[C@H]1C(=O)NC(c1ccc(OC)cc1)c1ccc(OC)cc1)C(C)(C)C [Compound 51]
EC50 (SKOV-3 cells): < 0.25 µM

CN[C@@H](C)C(=O)N[C@H](C(=O)N1C[C@@H](NC(=O)C2CCC(C(=O)N[C@H]3C[C@@H](C(=O)N[C@@H]4CCCc5ccccc54)N(C(=O)[C@@H](NC(=O)[C@H](C)NC)C(C)(C)C)C3)CC2)C[C@H]1C(=O)N[C@@H]1CCCc2ccccc21)C(C)(C)C (stereo partly shown) [Compound 52]
EC50 (SKOV-3 cells): < 0.05 µM

CC[C@H](N)C(=O)N[C@H](C(=O)N1C[C@@H](NC(=O)c2ccc(C(=O)N[C@H]3C[C@@H](C(=O)N[C@@H]4CCCc5ccccc54)N(C(=O)[C@@H](NC(=O)[C@@H](N)CC)C(C)(C)C)C3)cc2)C[C@H]1C(=O)N[C@@H]1CCCc2ccccc21)C(C)(C)C [Compound 53]
EC50 (SKOV-3 cells): > 1 µM

CN[C@@H](C)C(=O)N[C@H](C(=O)N1C[C@@H](NC(=O)c2ccc(C(=O)N[C@H]3C[C@@H](C(=O)N[C@@H](CO)c4ccccc4)N(C(=O)[C@@H](NC(=O)[C@H](C)NC)C(C)(C)C)C3)cc2)C[C@H]1C(=O)N[C@@H](CO)c1ccccc1)C(C)(C)C [Compound 54]
EC50 (SKOV-3 cells): > 1 µM

CN[C@@H](C)C(=O)N[C@H](C(=O)N1C[C@@H](NC(=O)c2ccc(C(=O)N[C@H]3C[C@@H](C(=O)N[C@@H]4CCCc5ccccc54)N(C(=O)[C@@H](NC(=O)[C@H](C)NC)C(C)(C)C)C3)cc2)C[C@H]1C(=O)N[C@@H]1CCCc2ccccc21)C(C)(C)C [Compound 55]
EC50 (SKOV-3 cells): < 0.05 µM

CN[C@@H](C)C(=O)N[C@H](C(=O)N1C[C@@H](NS(=O)(=O)c2ccc3cc(S(=O)(=O)N[C@H]4C[C@@H](C(=O)N[C@@H]5CCCc6ccccc65)N(C(=O)[C@@H](NC(=O)[C@H](C)NC)C(C)(C)C)C4)ccc3c2)C[C@H]1C(=O)N[C@@H]1CCCc2ccccc21)C(C)(C)C [Compound 56]
EC50 (SKOV-3 cells): < 0.05 µM

CN[C@@H](C)C(=O)N[C@H](C(=O)N1C[C@@H](CC(=O)c2ccc3ccc(C(=O)N[C@H]4C[C@@H](C(=O)N[C@@H]5CCCc6ccccc65)N(C(=O)[C@@H](NC(=O)[C@H](C)NC)C(C)(C)C)C4)cc3c2)C[C@H]1C(=O)N[C@@H]1CCCc2ccccc21)C(C)(C)C [Compound 57]
EC50 (SKOV-3 cells): < 0.05 µM

CN[C@@H](C)C(=O)N[C@H](C(=O)N1C[C@@H](NS(=O)(=O)c2ccc3ccc(S(=O)(=O)N[C@H]4C[C@@H](C(=O)N[C@@H]5CCCc6ccccc65)N(C(=O)[C@@H](NC(=O)[C@H](C)NC)C(C)(C)C)C4)cc3c2)C[C@H]1C(=O)N[C@@H]1CCCc2ccccc21)C(C)(C)C [Compound 58]
EC50 (SKOV-3 cells): < 0.25 µM

CN[C@@H](C)C(=O)N[C@H](C(=O)N1C[C@@H](NC(=O)c2ccc(C(=O)N[C@H]3C[C@@H](C(=O)N[C@H](CO)c4ccccc4)N(C(=O)[C@@H](NC(=O)[C@H](C)NC)C(C)(C)C)C3)cc2)C[C@H]1C(=O)N[C@H](CO)c1ccccc1)C(C)(C)C [Compound 59]
EC50 (SKOV-3 cells): < 0.25 µM

CN[C@@H](C)C(=O)N[C@H](C(=O)N1C[C@@H](NC(=O)c2ccc(C(=O)N[C@H]3C[C@@H](C(=O)NCc4ccccc4-c4ccccc4)N(C(=O)[C@@H](NC(=O)[C@H](C)NC)C(C)(C)C)C3)cc2)C[C@H]1C(=O)NCc1ccccc1-c1ccccc1)C(C)(C)C [Compound 60]
EC50 (SKOV-3 cells): < 0.05 µM

CN[C@@H](C)C(=O)N[C@H](C(=O)N1C[C@@H](NC(=O)c2ccc(C(=O)N[C@H]3C[C@@H](C(=O)NC4Cc5ccccc5C4)N(C(=O)[C@@H](NC(=O)[C@H](C)NC)C(C)(C)C)C3)cc2)C[C@H]1C(=O)NC1Cc2ccccc2C1)C(C)(C)C [Compound 61]
EC50 (SKOV-3 cells): < 0.05 µM

CN[C@@H](C)C(=O)N[C@H](C(=O)N1C[C@@H](NC(=O)c2ccc(C(=O)N[C@H]3C[C@@H](C(=O)N[C@H](COCc4ccccc4)c4ccccc4)N(C(=O)[C@@H](NC(=O)[C@H](C)NC)C(C)(C)C)C3)cc2)C[C@H]1C(=O)N[C@H](COCc1ccccc1)c1ccccc1)C(C)(C)C [Compound 64]
EC50 (SKOV-3 cells): < 0.05 µM
